# According to patent US12371658B2, “Three-dimensional microtissues with integrated mechanical loading” (Carnegie Mellon University, priority 2017, dated 2025):
# Test system: cardiac MIFIs (HUES9-CMs with 10% FBs)
# Assay: side-on contractility assay of cardiac MIFIs with drug dosing (twitch force, beat frequency)
# Format: cell-based, human
# Conditions: for beat frequency relative to initial beat frequency: normalized to native beat frequency
# Description: MIFIs were removed from wells using forceps and were transferred to a 35 mm petri dish filled with 37° C. Tyrode's solution (1.192 g HEPES, 0.203 g MgCl2, 0.403 g KCl, 7.889 g NaCl, 0.04 g NaH2PO4, 0.901 g C6H12O6, and 0.265 g CaCl2) per liter of distilled water, pH 7.4). MIFIs were anchored by placing the wide base of the strip into a slit in a PDMS block glued to the bottom of the stimulation dish. The Tyrode's bath was maintained between 30° and 37° C. using a heated stage regulated by an in house Lab VIEW program. Videos of samples were taken using a NikonTM […] DSLR camera mounted on a NikonTM SMZ1500 stereomicroscope. Samples were paced from 2-10 Hz using parallel platinum electrodes placed 2 cm apart and immersed in Tyrode's solution. Samples were stimulated with 40V using a 10 ms square pulse wave. Shorter pulse durations can also be used (e.g., 2 ms, 4 ms, 6 ms, etc.). Carbachol and isoprenaline were mixed to stock concentrations of 5 mM in 1× Tyrode's solution. […] Caffeine was dissolved directly in Tyrode's to make a stock solution of 20 mM. […] Finite element modeling of bending PDMS strips was used to create lookup tables for strips ranging in thickness from 125 to 154 μm. FIGS. 9A-D show modeling data 930 for strips 900, 910, and 920. The elastic strip (e.g., strip 112) was modeled as 3D deformable extruded solid, with extruded thickness varying between 125 and 154 μm. The elastic strip was considered as linearly elastic, isotropic and incompressible material, with Young's modulus equal to 3.09 MPa according to elastic modulus measurements. The section of the elastic strip was considered as solid homogeneous. The force-driven bending simulation was designed to mimic the experimental procedure. One static general analysis step was used where the elastic strip was deformed by application of equal contractile force in three parallel axial connectors placed in the regions where the tissue was attached during the experiment, so that the total force would equal the sum of the contractile force of the three connectors. […] Additional boundary conditions were imposed based on geometrical symmetry. […] Finally, the finite element mesh was composed of 20-node quadratic, hybrid, reduced integration brick elements. From this model, the change in tissue length could then be used to calculate the force necessary to bend the strips to these conformations. Length changes of contracting MIFIs were tracked and resulting length data was used to calculate the corresponding force based on tissue length and strip parameters (e.g., thickness, width, length, elastic modulus, and shape). […] By tracking the change in tissue length of beating MIFIs, we calculated force generated by these tissues using force lookup tables. MIFIs were removed from wells, one side of the strip was placed in a slit in a PDMS block to anchor the MIFI for side-on viewing, and the construct was submerged in Tyrode's and placed between two parallel platinum electrodes for later stimulation by assay device 1300.
# [1] = Day 14, 10% FB MIFI, carbachol dosing, concentration not given
# [2] = Day 14, 10% FB MIFI, isoprenaline at 500 nM and 5 μM
smiles,measurement,setting,value
Cn1c(=O)c2c(ncn2C)n(C)c1=O [caffeine],beat frequency relative to initial BPM,5 mM caffeine,1.59 ×
same,effect on twitch force,"Day 14, 10% FB MIFI, 55 mM caffeine",minimal impact on the twitch force
same,effect on spontaneous beat frequency,"Day 14, 10% FB MIFI, 55 mM caffeine, after isoprenaline wash-out",increased the spontaneous beat frequency
C[N+](C)(C)CCOC(N)=O [carbachol],effect on spontaneous beat frequency,[1],reduced the spontaneous beat frequency
same,effect on twitch force,[1],surprisingly little impact on twitch force
same,twitch force relative to twitch force of synchronous constructs,"Day 14 arrhythmic construct, carbachol 500 nM, 5 μM, 50 µM, spontaneous beating",~30%
same,effect on spontaneous beat frequency of arrhythmic construct,"Day 14 arrhythmic construct, increasing carbachol doses 500 nM, 5 μM, 50 µM",improvement in the spontaneous beat frequency
same,fold stronger twitch contraction,"arrhythmic construct, 2 Hz pacing coupled with 5 μM carbachol",2.5 ×
same,fold stronger twitch contraction,"arrhythmic construct, 2 Hz pacing coupled with 50 μM carbachol",2.8 ×
same,combinatorial effect of drug treatment with electric pacing on twitch force,"arrhythmic construct, carbachol 5 μM and 50 μM, 2 Hz pacing",significantly higher twitch forces
CNC[C@H](O)c1ccc(O)c(O)c1 [epinephrine],twitch force as percent of initial twitch force,"5 μM epinephrine, electrical pacing 2 Hz",85%
same,twitch force as percent of initial twitch force,"5 μM epinephrine, spontaneous beating",66%
same,twitch force as percent of initial twitch force,"50 μM epinephrine, electrical pacing 2 Hz",80%
same,twitch force as percent of initial twitch force,"50 μM epinephrine, spontaneous beating",61%
same,twitch force,"Day 14, 10% FB MIFI, 500 nM epinephrine, spontaneous beating",5.49 μN
same,effect on twitch force,"Day 14, 10% FB MIFI, epinephrine 500 nM to 50 μM",dose-dependent decrease in twitch force
same,beat frequency relative to initial BPM,"epinephrine, first of two values, dose not given",1.42 ×
CC(C)NCC(O)c1ccc(O)c(O)c1 (centres unmarked) [isoprenaline],beat frequency relative to initial beat frequency,500 nM isoprenaline,1.27 ×
same,beat frequency relative to initial beat frequency,50 μM isoprenaline,1.48 ×
same,twitch force as percent of initial twitch force,"Day 14, 10% FB MIFI, 500 nM isoprenaline",~80%
same,twitch force,"Day 14, 10% FB MIFI, 500 nM isoprenaline, 2 Hz paced",2.81 μN
same,twitch force,"Day 14, 10% FB MIFI, 500 nM isoprenaline, spontaneous beating",2.85 μN
same,twitch force,"Day 14, 10% FB MIFI, beating spontaneously in 5 M isoprenaline",~4.0 μN
same,twitch force as percent of initial twitch strength,"Day 14, 10% FB MIFI, isoprenaline",~50%
same,effect on native beat frequency,[2],intended stimulatory effect
same,effect on twitch force,[2],did not noticeably affect the twitch force
same,ability to electrically pace the constructs,"Day 14, 10% FB MIFI, isoprenaline at 500 nM and 5 μM, 2 Hz pacing",did not interrupt the ability to electrically pace the constructs
same,twitch force,"Day 14, 10% FB MIFI, isoprenaline, 2 Hz paced",2.15 μN
same,twitch force,"Day 14, 10% FB MIFI, isoprenaline, spontaneous beating",1.78 μN
